Assay results published in patent US8916686B2, “TDF-related compounds and analogs thereof” (Thrasos Innovation, Inc., priority 2004, dated 2014).

How the values were obtained:
[1] = system: renal toxic effects of cisplatin in the rat; experiment: Cisplatin renal toxicity in male Sprague-Dawley rat; format: in vivo
Procedure: Compound (SEQ ID #45) was tested in male Sprague-Dawley rats (250 gm to 300 gm) to establish the dose range and the extent to which the compound is able to prophylactically and therapeutically ameliorate the renal toxic effects of cisplatin. The cisplatin dosing level was the chemotherapeutic level used in humans, 40 ug/kg bw. The end points were the level of creatinine in serum and kidney histology. The positive control used was 250 ug/kg bw of the mature form of recombinant human BMP-7 (rhmBMP-7).
A stock solution (70 mg/ml) of the test article (SEQ ID #45) was made by dissolving it in 20 mM Acetate (ph 4.2). The stock solution was further diluted into phosphate buffered saline (PBS, pH 7.2) plus 5% Mannitol to compound concentrations of 14 mg/ml (28 mg/kg dose), 1.4 mg/ml (2.8 mg/kg dose) and 0.14 mg/ml (0.28 mg/kg dose).
Cisplatin was administered via i.p. injection (40 ug/kg bw) at time zero. Administration of therapeutic dosing of the compound, the rhmBMP-7 positive control and vehicle negative control were by slow bolus i.v. injection through the tail vein at five time points: 2 hours before the administration of cisplatin, then at 24 hours, 48 hours, 72 hours and 96 hours post cisplatin administration. Blood samples were collected through the tail vein at time points of 0, 24, 48, 72 and 96 hours. At seven day sample was collected by exsanguination at sacrifice. Serum was prepared from the blood samples and analyzed for creatinine concentration. The serum concentration of creatinine, a byproduct of muscle activity that is released into the blood stream and cleared through the kidneys, is a marker of kidney function that tends to rise when kidney function becomes severely compromised (FIG. 18).
Upon sacrifice at seven days, the kidneys were harvested, fixed in formalin and imbedded in paraffin. They were then sagitally sectioned and stained in H&E stain. Kidney sections were also stained with anti-bodies against proliferating cell nuclear antigen (PCNA) (to identify sites of cell regeneration), macrophages, ICAM-1, and smooth muscle. Also collected at sacrifice were tissues at and around the injection site (FIG. 19A-FIG. 19B).

[2] = system: HK-2 (Human Kidney-2) cells; experiment: HK-2 cell culture, TNF-alpha induced cytokine production (IL-6 ELISA); format: cell-based
Procedure: The immortalized PTEC-derived HK-2 (Human Kidney-2) cells (ATCC number CRL-2190) were grown in serum-free keratinocyte medium (GIBCO number 17005-042) supplemented with epidermal growth factor (EGF: 5 ng/mL) and bovine pituitary extract (40 ug/mL) for 48 hours as described previously (Ryan et al (1994) Kidney International 45:48-57). Cells were transferred to 24-well plates at a density of 3×10^5 cells per well. After 24 hours, cells were incubated with fresh medium containing TNF-alpha (5 ng/mL) for 20 hours. Controls received medium alone. Then cells were washed twice with fresh culture medium and further incubated with culture medium alone (medium control, and TNF control wells) or TDF-1 at three different concentrations (40, 200 or 1000 ng/mL) or TDFRP compounds at three different concentrations (4, 20 or 100 uM) for sixty hours. During incubation, cells were kept in a 5% CO2 humid atmosphere at 37° C. At the end of the incubation, the media were removed and stored frozen until assayed. The concentrations of IL-6, IL-8 and sICAM-1 in culture supernatants were measured by specific ELISA (FIG. 10). […]
An 8 point standard curve is prepared using 2-fold serial dilutions in reagent diluent. […] The optical density of each well is determined immediately using a microplate reader (Dynex Revelation 4.22) set to 450 nm and a wavelength correction at 550 nm […]

CYFDDSSNVLCKKYRS [SEQ ID NO 45]
cisplatin-induced inflammation of the kidney cortex ([1]; 2.8 mg/kg bw): significantly reduced
ICAM-1 release ([1]; 2.8 mg/kg bw, kidney sections): reduced
degree of cellular regeneration (PCNA) ([1]; 2.8 mg/kg bw, kidney sections): increased
macrophage infiltration ([1]; 2.8 mg/kg bw, kidney sections): reduced
smooth muscle loss ([1]; 2.8 mg/kg bw, kidney sections): reduced
cisplatin-induced level of creatinine in serum ([1]; 0.28, 2.8 and 28 mg/kg bw i.v.): reduces the cisplatin-induced level of creatinine in serum
reduction of serum creatinine rise following cisplatin, versus positive control ([1]; highest dose (28 mg/kg), positive control rhmBMP-7): more efficacious than the positive control
nephrotoxic effects of cisplatin exposure ([1]; rat, in vivo): can reduce or ameliorate the nephrotoxic effects of cisplatin exposure
TNF-alpha induced inflammatory response (increase in IL-6) in proximal tubule cells [2]: can alleviate this inflammatory response
